Measurements reported in US20060172993A1 (priority 2002, published 2006).
Marks after values point to notes of the source that are not given here.

Tests used:
Format in all cases: in vivo, human
[1] = test system: Patients diagnosed with Alzheimer's Disease; experiment: Discontinuation of trial medication
[2] = test system: Patients diagnosed with Alzheimer's Disease; experiment: CIBIC-plus (Clinician's Interview Based Impression of Change Plus Family Input)
Method: (§1) Subjects in the Placebo group received 21 weeks (5 months) of placebo medication.
The CIBIC-plus score was a second primary variable. An independent, experienced and properly trained clinician provided a global impression of the subject's deterioration or improvement over the course of the trial, based on separate interviews with the subject and caregivers. If helpful, the CIBIC rater audiotaped or videotaped the baseline interview for future reference.
The CIBIC-plus was performed at visit 2, 3, 4, and 5 (baseline, week 4, week 13, and month 5 or upon early discontinuation of trial medication intake). Only a trained CIBIC rater performed the test.
For ordinal categorical variables such as the CIBIC-plus score, the Van Elteren test controlling for investigator was used for the between group comparison. For the nominal data (e.g., events rates), the Cochran-Mantel-Haenszel test for general association controlling for investigator was used. A linear contrast on the proportion of patients that stay the same or improve was used to test for increasing response with increasing dose.

[3] = test system: Patients diagnosed with Alzheimer's Disease; experiment: ADCS/ADL scale (Activities of Daily Living)
Text: as §1
The ADCS/ADL scale is a 23-item informant-based assessment scale measuring widely applicable daily activities appropriate for patients in the mild to moderate category of Alzheimer's Disease. The 23 items were selected for measurement from the larger set of 45 items studied by Galasko et al (Alzheimer Disease and Associated Disorders, Vol 11, Suppl. 2, 1997). These individual items were scored from 0-3 to […], depending on the question, with a possible total score of 78. A higher score indicated a higher functioning patient.
The items and scoring were as follows: • Eating (0-3) • Walking (0-3) • Toileting (0-3) • Bathing (0-3) • Grooming (0-3) • Dressing • selection of clothes (0-3) • physical performance (0-4) • Telephone (0-5) • Television (0-3) • Conversation (0-3) • Dishes (0-3) • Managing personal belongings (0-3) • Obtaining beverages (0-3) • Making a meal or snack (0-4) • Disposal of garbage (0-3) • Travel outside home (0-4) • Shopping (0-4) • Keeping appointments (0-3) • Ability to be left alone (0-3) • Current events (0-3) • Reading (0-2) • Writing (0-3) • Hobbies (0-3) • Household appliances (0-4)
An additional secondary indication captures overall changes in Activities of daily Living (ADL) performances as measured by the Alzheimer's Disease Cooperative Study Activities of Daily Living (ACDS/ADL) scale. As mentioned above this scale is comprised of 23 items that have been tested and validated in patients with mild to moderately severe Alzheimer's disease.

[4] = test system: Patients diagnosed with Alzheimer's Disease; experiment: ADAS-cog/11 cognitive subscale, 5-month placebo-controlled trial; settings: for ADAS-cog/11 responders, change ≦ 0 points, % / ADAS-cog/11 responders, change ≦ −4 points, % / ADAS-cog/11 responders, change ≦ −7 points, % / ADAS-cog/11 responders, change ≦ −10 points, %: Month 5
Text: as §1
The ADAS consists of two parts—a cognitive subscale and a behavioral subscale. The behavioral subscale was not be used in this study. The cognitive subscale, the ADAS--cog-11, consisted of Word Recall and Word Recognition memory tests, Object and Finger Naming, Commands, Constructional Praxis, Ideational Praxis, Orientation, Remembering Test Instructions, Spoken language Ability, Comprehension of Spoken language and Word Finding Difficulty was the primary variable in this study.
The ADAS was performed at visits 1, 2, 3, 4 and 5 (screening, baseline, week 4, week 13 and month 5 or upon early discontinuation of trial medication intake). For word recall and word recognition two parallel wordlists, list A and list B were employed. List A was used at visits 1 and 3, List B at visits 2, 4, and 5 or upon early discontinuation of trial medication intake. For practical reasons the words for word recognition was presented only once. The total score of the 11 cognitive items on the original ADAS cognitive subscale (ADAS-cog/11, Range: 0-70) was recorded.
Between treatment groups comparisons (with particular focus on differences from placebo) were done at each scheduled time interval and for each endpoint imputation scheme. These comparisons will be based on the change from baseline scores for efficacy parameters with baseline (e.g., ADAS-cog/11) and the original scored for efficacy parameters without baseline e.g., CIBIC-plus).
For continuous data, a two-way analysis of variance (ANOVA) model with treatment and investigator as factors were used to compare the treatment groups for the change from baseline data. The interaction between treatment and investigator was examined. The impact of the baseline score on change from baseline was evaluated. […] If the parametric methods were deemed inappropriate (normality assumption violated), nonparametric methods such as two-way ANOVA on ranked data, Van Elteren test, controlling for investigator, was used. Following ANOVA, Fisher's LSD procedure was used for pairwise comparisons between each galanthamine group and the placebo group. A linear contrast on the main effect for treatment was used to test the dose response relationship.

COc1ccc2c3c1O[C@H]1C[C@@H](O)C=C[C@@]31CCN(C)C2 [GAL, galantamine]
DC due to adverse event, % ([1]; 8 mg/day): 6% | Total discontinued (DC), % ([1]; 8 mg/day): 23% | DC due to adverse event, % ([1]; 16 mg/day): 7% | Total discontinued (DC), % ([1]; 16 mg/day): 22% | DC due to adverse event, % ([1]; 24 mg/day): 10% | Total discontinued (DC), % ([1]; 24 mg/day): 22% | CIBIC-plus at Month 5 improved/no change, % of patients ([2]; 8 mg/day, LOCF): (53%) | CIBIC-plus at Month 5 improved/no change, % of patients ([2]; 8 mg/day, observed case): (51%) | CIBIC-plus at Month 5 improved/no change, % of patients ([2]; 16 mg/day, LOCF): (66%)***^† | CIBIC-plus at Month 5 improved/no change, % of patients ([2]; 16 mg/day, observed case): (68%)***^† | CIBIC-plus at Month 5 improved/no change, % of patients ([2]; 16 mg/day, observed case, listed as galantamine): 68% | CIBIC-plus at Month 5 improved/no change, % of patients ([2]; 24 mg/day, LOCF): (64%)***^‡ | CIBIC-plus at Month 5 improved/no change, % of patients ([2]; 24 mg/day, observed case): (64%)***^‡ | CIBIC-plus at Month 5 improved/no change, % of patients ([2]; 24 mg/day, observed case, listed as galantamine): 64% | Change in Total ADL score from baseline at Month 5, Mean ([3]; 8 mg/day, LOCF): −3.2 | Change in Total ADL score from baseline at Month 5, Mean ([3]; 8 mg/day, observed case): −3.1 | Change in Total ADL score from baseline at Month 5, Mean ([3]; 16 mg/day, LOCF): −0.7 | Change in Total ADL score from baseline at Month 5, Mean ([3]; 16 mg/day, observed case): −0.5 | Change in Total ADL score from baseline at Month 5, Mean ([3]; 24 mg/day, LOCF): −1.5 | Change in Total ADL score from baseline at Month 5, Mean ([3]; 24 mg/day, observed case): −1.6 | Change from baseline in ADAS-cog/11 at Month 5, Mean ([4]; 8 mg/day, LOCF): 0.4 | ADAS-cog/11 responders, change ≦ 0 points, % ([4]; 8 mg/day): (46.5) % | ADAS-cog/11 responders, change ≦ −4 points, % ([4]; 8 mg/day): (25.7) % | ADAS-cog/11 responders, change ≦ −7 points, % ([4]; 8 mg/day): (13.9) % | ADAS-cog/11 responders, change ≦ −10 points, % ([4]; 8 mg/day): (5.9) % | Change from baseline in ADAS-cog/11 at Month 5, Mean ([4]; 8 mg/day, observed case): 0.1 | Change from baseline in ADAS-cog/11 at Month 5, Mean ([4]; 16 mg/day, LOCF): −1.4 | ADAS-cog/11 responders, change ≦ 0 points, % ([4]; 16 mg/day): (65.4)***^‡ % | ADAS-cog/11 responders, change ≦ −4 points, % ([4]; 16 mg/day): (35.6)***♦ % | ADAS-cog/11 responders, change ≦ −7 points, % ([4]; 16 mg/day): (15.9)** % | ADAS-cog/11 responders, change ≦ −10 points, % ([4]; 16 mg/day): (7.2) % | ADAS-cog/11 responders, change ≦ −7 points, % ([4]; 16 mg/day, listed as galantamine): 15.9% | Change from baseline in ADAS-cog/11 at Month 5, Mean ([4]; 16 mg/day, observed case): −1.5 | Change from baseline in ADAS-cog/11 at Month 5, Mean ([4]; 24 mg/day, LOCF): −1.4 | ADAS-cog/11 responders, change ≦ 0 points, % ([4]; 24 mg/day): (64.9)***^‡ % | ADAS-cog/11 responders, change ≦ −4 points, % ([4]; 24 mg/day): (37.0)***^† % | ADAS-cog/11 responders, change ≦ −7 points, % ([4]; 24 mg/day): (22.3)***♦♦ % | ADAS-cog/11 responders, change ≦ −10 points, % ([4]; 24 mg/day): (10.4)** % | ADAS-cog/11 responders, change ≦ −7 points, % ([4]; 24 mg/day, listed as galantamine): 22.3% | Change from baseline in ADAS-cog/11 at Month 5, Mean ([4]; 24 mg/day, observed case): −1.8
